The text below walks through data of patent publication US20250327791A1, “METHODS OF TREATMENT BASED ON PATIENT SPECIFIC CLINICAL TRIAL MODELS AND ASSOCIATED MODELS AND USES” (DUKE UNIVERSITY, priority 2017, published 2025).

Common to all, as to format: cell-based
The test system of one experiment is CRC 119. As to the kind of experiment: In vitro screening, ponatinib IC50 (cell viability). The conditions noted are these: Homo sapiens, 72 hours after drug addition. As to the method: (§1) For in vitro screening, cell lines were cultured in DMEM+10% FBS+1% Penicillin/Streptomycin and plated in drug free medium. Ponatinib solubilized in DMSO was added to cell lines containing between 3000-6000 cells that had been incubated at 37° C. for 24 hours. Each cell line was exposed to seven different drug combinations between 1.6 nM and 25 μM. Five replicates were used for each drug concentration. 72 hours after drug addition cell viability assay and IC50 values were calculated for each cell line using GraphPad Prism software.
(§2) Reanalyzing the screen data, FIG. 6A identified axitinib 61, sunitinib 62, and dasatinib 63 as targeting similar pathways as ponatinib 64. […] Pre and post ponatinib treatment the major signaling pathways downstream of FGFR, FIG. 7C, not only show a decrease in STAT expression FIG. 8 in CRC119 81, CRC240 83, and CRC057 85 but an increase in p-AKT expression in CRC 119 86, CRC240 87, and CRC057 88. Expression of p-ERK increased in CRC240 89, and CRC057 82 as well.

The next experiment has as its system CRC240. Described as above. As to conditions: Homo sapiens, 72 hours after drug addition. As to the method:
as §1, §2

A further experiment concerns CRC057. The experiment is described as above. As to conditions: Homo sapiens, 72 hours after drug addition. As to the method: as §1, §2
The subject of another experiment is CRC cell lines. As to the kind of experiment: High-throughput drug screen, panel of patient-derived cell lines. The conditions noted are these: Homo sapiens, in 4/6 cell lines, mined drug screen data, read-out: inhibits growth. As to the method: Unless otherwise noted all experiments were carried out using the following materials and methods which are here presented as examples and not limiting embodiments. All equivalent variants are contemplated as part of the presently disclosed subject matter. An Echo Acoustic Dispenser provided automated liquid handling for drug addition while cell plating was performed by a Thermo Fisher Well Mate and assays used a Clarioscan plate reader. The drugs assayed were stamped to the cell plates immediately prior to cell plating at a final concentration of 1 μM. The drug pre-coated plates were plated with 500-1000 cells/well. 72 hours after cell plating cell viabilities were assessed via a CellTiter-Glo Luminescent Cell Viability Assay.
In this embodiment matching cells lines 31 and PDXs are created 32. These can be developed as described in the Uronis and Kim papers previously incorporated by reference. Drugs may subsequently be screened using these cell lines 33 the results validated in vivo 34 and RNA-Seq and molecular analysis 35 used. As a non-limiting example, CRC057, CRC119, CRC240, CRC247 15-496, and 16-159 were derived from patient colorectal cancers. It should be understood by those of skill in the art that any suitable type of cancer sample may have been taken. High-throughput drug screens, including 119 FDA-approved drug compounds, were performed using the patient-derived cell lines. […]

Where only a bound is given, the exact number is not on record here.

As a reminder, the IC50 is the point on the concentration scale where inhibition reaches its midpoint. For the molecule `Cc1ccc(C(=O)Nc2ccc(CN3CCN(C)CC3)c(C(F)(F)F)c2)cc1C#Cc1cnc2cccnn12` [ponatinib], the IC50 was determined as 1100 nM with CRC 119, 1100 nM with CRC240 and 700 nM with CRC057. The inhibition at 1 µM in the experiment on CRC cell lines is at least 50%.
